According to patent publication US8476265B2, “Compounds-801” (AstraZeneca AB, priority 2010, dated 2013):

Key:
[1] = target: T1, human muscarinic acetylcholine M3 receptor (Homo sapiens, UniProt P20309); experiment: Muscarinic 3 receptor binding assay ([3H]NMS competition, SPA), pIC50; details: [3H]NMS 0.1 nM, CHO-K1 cell membranes expressing human M3 receptor
T1 construct: expressed in transfected cells; host or cells: CHO-K1 (Chinese Hamster Ovary) cell membranes
Procedure: Muscarinic 3 Receptor Binding Assay
The affinity (pIC50) of compounds binding to the M3 receptor is determined by competition binding of [^3H]N-methyl scopolamine (NMS) to CHO-K1 (Chinese Hamster Ovary) cell membranes expressing the human muscarinic acetylcholine M3 receptor (M3-ACh) in a scintillation proximity assay (SPA) format.
SPA beads are precoated with membranes and then incubated at 2 mg of beads per well with serial dilutions of compounds of the invention, [^3H]NMS at 0.1 nM, quarter Kd (experimentally determined dissociation constant) and assay buffer (20 mM HEPES pH 7.4 containing 5 mM MgCl2 and 0.1% (w/v) bovine serum albumin). The assay is conducted in a final volume of 200 μL, in the presence of 1% (v/v) dimethyl sulphoxide (DMSO). Total binding of [^3H]NMS is determined in the absence of competing compound and non-specific binding of [^3H]NMS is determined in the presence of 1 μM atropine. The plates are incubated for 16 hours at room temperature and then read on Wallac Microbeta™ using a normalised ^3H protocol. The pIC50, defined as the negative logarithm of the molar concentration of compound required for 50% reduction in specific [^3H]-NMS binding, is determined.

Adrenergic β2 = target: T2, Adrenergic β2 (Homo sapiens, UniProt P07550); experiment: Adrenergic β2 mediated cAMP production in H292 cells (AlphaScreen), concentration response; type: cell-based; details: for EC50: 60 min, 300 μM rolipram, read-out: β2 pEC50 (converted); for β2 Intrinsic Activity: fraction relative to the maximum activity determined for formoterol
T2 construct: Adherent H292 cells are removed from tissue culture flasks by treatment with Accutase™ cell detachment solution; endogenous in cells; host or cells: H292 cells
T2 sequence (P07550 whole entry): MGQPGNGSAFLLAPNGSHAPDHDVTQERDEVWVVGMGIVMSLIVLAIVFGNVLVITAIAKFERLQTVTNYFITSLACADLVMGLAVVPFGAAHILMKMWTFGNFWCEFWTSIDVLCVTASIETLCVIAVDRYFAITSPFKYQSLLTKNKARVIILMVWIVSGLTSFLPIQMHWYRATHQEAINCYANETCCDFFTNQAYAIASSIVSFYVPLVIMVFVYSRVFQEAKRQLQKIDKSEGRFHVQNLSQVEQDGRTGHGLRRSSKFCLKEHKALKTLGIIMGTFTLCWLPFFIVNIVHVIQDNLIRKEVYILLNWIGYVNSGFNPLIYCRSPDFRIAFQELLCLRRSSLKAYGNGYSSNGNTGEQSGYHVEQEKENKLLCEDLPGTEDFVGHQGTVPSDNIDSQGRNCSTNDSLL
Procedure: Assay for Adrenergic 132 Mediated cAMP Production
H292 cells are grown in 225 cm2 flasks incubator at 37° C., 5% CO2 in RPMI medium containing 10% (v/v) FBS (foetal bovine serum) and 2 mM L-glutamine.
Adherent H292 cells re removed from tissue culture flasks by treatment with Accutase™ cell detachment solution for 15 minutes. Flasks are incubated for 15 minutes in a humidified incubator at 37° C., 5% CO2. Detached cells are re-suspended in RPMI media (containing 10% (v/v) FBS and 2 mM L-glutamine) at 0.1×10^6 cells per mL. 10000 cells in 100 μl, are added to each well of a tissue-culture-treated 96-well plate and the cells incubated overnight in a humidified incubator at 37° C., 5% CO2. The culture media is removed and cells are washed twice with 100 μL assay buffer and replaced with 50 μl assay buffer (HBSS solution containing 10 mM HEPES pH7.4 and 5 mM glucose). Cells are rested at room temperature for 20 minutes after which time 25 μl of rolipram (1.2 mM made up in assay buffer containing 2.4% (v/v) dimethylsulphoxide) is added. Cells are incubated with rolipram for 10 minutes after which time test compounds are added and the cells are incubated for 60 minutes at room temperature. The final rolipram concentration in the assay is 300 μM and final vehicle concentration is 1% (v/v) dimethylsulphoxide. The reaction is stopped by removing supernatants, washing once with 100 μL assay buffer and replacing with 50 μL lysis buffer. The cell monolayer is frozen at −80° C. for 30 minutes (or overnight).
AlphaScreen™ cAMP detection
The concentration of cAMP (cyclic adenosine monophosphate) in the cell lysate is determined using AlphaScreen™ methodology. The frozen cell plate is thawed for 20 minutes on a plate shaker then 10 μL of the cell lysate is transferred to a 96-well white plate. 40 μL of mixed AlphaScreen™ detection beads pre-incubated with biotinylated cAMP, is added to each well and the plate incubated at room temperature for 3 hours in the dark. The AlphaScreen™ signal is measured using an EnVision spectrophotometer (Perkin-Elmer Inc.) with the recommended manufacturer's settings. cAMP concentrations are determined by reference to a calibration curve determined in the same experiment using standard cAMP concentrations. Concentration response curves for agonists are constructed and data is fitted to a four parameter logistic equation to determine both the pEC50 and Intrinsic Activity. Intrinsic Activity is expressed as a fraction relative to the maximum activity determined for formoterol in each experiment.

T1 sequence (P20309 whole entry): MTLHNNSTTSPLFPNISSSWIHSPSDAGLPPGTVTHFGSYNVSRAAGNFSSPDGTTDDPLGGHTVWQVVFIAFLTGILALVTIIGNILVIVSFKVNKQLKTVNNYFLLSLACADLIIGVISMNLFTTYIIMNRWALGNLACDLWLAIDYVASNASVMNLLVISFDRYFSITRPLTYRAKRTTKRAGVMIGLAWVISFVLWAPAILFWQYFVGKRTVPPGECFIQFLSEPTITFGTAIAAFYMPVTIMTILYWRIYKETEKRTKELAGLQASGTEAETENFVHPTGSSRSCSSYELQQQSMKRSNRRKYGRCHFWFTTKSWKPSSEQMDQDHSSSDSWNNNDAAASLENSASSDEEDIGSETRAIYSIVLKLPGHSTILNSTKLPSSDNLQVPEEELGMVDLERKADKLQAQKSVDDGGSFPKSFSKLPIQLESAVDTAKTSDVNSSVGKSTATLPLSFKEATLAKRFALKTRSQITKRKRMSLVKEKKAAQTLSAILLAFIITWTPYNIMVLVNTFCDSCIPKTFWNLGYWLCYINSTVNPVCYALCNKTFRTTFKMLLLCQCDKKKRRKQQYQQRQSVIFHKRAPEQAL

IC50 [1] [µM]	EC50 (Adrenergic β2) [µM]	β2 Intrinsic Activity (Adrenergic β2)	Compound
0.000631	0.0501	0.9	CC(C)c1nc(C(=O)N2CCOC3(CCN(Cc4cccc(CCOCCC(=O)N(CCNCCc5ccc(O)c6c5OCC(=O)N6)[C@H](C)C(C)(C)C)c4F)CC3)C2)cs1 [Example 19, (R)—N-(3,3-Dimethylbutan-2-yl)-3-(2-fluoro-3-((4-(2-isopropylthiazole-4-carbonyl)-1-oxa-4,9-diazaspiro[5.5]undecan-9-yl)methyl)phenethoxy)-N-(2-(2-(5-hydroxy-3-oxo-3,4-dihydro-2H-benzo[b][1,4]oxazin-8-yl)ethylamino)ethyl)propanamide ditrifluoroacetate]
0.0002	0.0794	1.1	CC(C)c1nc(C(=O)N2CCOC3(CCN(Cc4cccc(CCOCCC(=O)N(CCNCCc5ccc(O)c6c5OCC(=O)N6)CCC(F)(F)F)c4F)CC3)C2)cs1 [Example 20, 3-(2-Fluoro-3-((4-(2-isopropylthiazole-4-carbonyl)-1-oxa-4,9-diazaspiro[5.5]undecan-9-yl)methyl)phenethoxy)-N-(2-(2-(5-hydroxy-3-oxo-3,4-dihydro-2H-benzo[b][1,4]oxazin-8-yl)ethylamino)ethyl)-N-(3,3,3-trifluoropropyl)propanamide ditrifluoroacetate]
0.000316	0.0631	1.1	Cc1ccccc1CN(CCNCCc1ccc(O)c2c1OCC(=O)N2)C(=O)CCOCCc1cccc(CN2CCC3(CC2)CN(C(=O)c2csc(C(C)C)n2)CCO3)c1F [Example 21, 3-(2-Fluoro-3-((4-(2-isopropylthiazole-4-carbonyl)-1-oxa-4,9-diazaspiro[5.5]undecan-9-yl)methyl)phenethoxy)-N-(2-(2-(5-hydroxy-3-oxo-3,4-dihydro-2H-benzo[1)][1,4]oxazin-8-yl)ethylamino)ethyl)-N-(2-methylbenzyl)propanamide ditrifluoroacetate]
0.000251	0.0794	1.2	Cc1ccc(CN(CCNCCc2ccc(O)c3c2OCC(=O)N3)C(=O)CCOCCc2cccc(CN3CCC4(CC3)CN(C(=O)c3csc(C(C)C)n3)CCO4)c2F)cc1 [Example 22, 3-(2-Fluoro-3-(4-(2-isopropylthiazole-4-carbonyl)-1-oxa-4,9-diazaspiro[5.5]undecan-9-yl)methyl)phenethoxy)-N-(2-(2-(5-hydroxy-3-oxo-3,4-dihydro-2H-benzo[b][1,4]oxazin-8-yl)ethylamino)ethyl)-N-(4-methylbenzyl)propanamide ditrifluoroacetate]
0.000316	0.0794	1.2	COc1cccc(CN(CCNCCc2ccc(O)c3c2OCC(=O)N3)C(=O)CCOCCc2cccc(CN3CCC4(CC3)CN(C(=O)c3csc(C(C)C)n3)CCO4)c2F)c1 [Example 23, 3-(2-Fluoro-3-((4-(2-Isopropylthiazole-4-carbonyl)-1-oxa-4,9-diazaspiro[5.5]undecan-9-yl)methyl)phenethoxy)-N-(2-(2-(5-hydroxy-3-oxo-3,4-dihydro-2H-benzo[b][1,4]oxazin-8-yl)ethylamino)ethyl)-N-(3-methoxybenzyl)propanamide ditrifluoroacetate]
0.001	0.0794	0.9	CCc1cc(C(=O)N2CCOC3(CCN(Cc4cccc(CCOCCC(=O)N(CC)CCNCCc5ccc(O)c6c5OCC(=O)N6)c4F)CC3)C2)cs1 [Example 24, N-Ethyl-3-(3-((4-(5-ethylthiophene-3-carbonyl)-1-oxa-4,9-diazaspiro[5.5]undecan-9-yl)methyl)-2-fluorophenethoxy)-N-(2-(2-(5-hydroxy-3-oxo-3,4-dihydro-2H-benzo[b][1,4]oxazin-8-yl)ethylamino)ethyl)propanamide ditrifluoroacetate]
